The text below walks through data of publication PMC6120934, “Inhibiting Multiple Deubiquitinases to Reduce Androgen Receptor Expression in Prostate Cancer Cells” (Scientific Reports, 2018).

Assay type in all cases: biochemical
For test [1], the target named is T1, USP27X (Homo sapiens, UniProt A6NNY8).
T1 construct: recombinant (recUSP27)
T1 sequence (A6NNY8 1-438): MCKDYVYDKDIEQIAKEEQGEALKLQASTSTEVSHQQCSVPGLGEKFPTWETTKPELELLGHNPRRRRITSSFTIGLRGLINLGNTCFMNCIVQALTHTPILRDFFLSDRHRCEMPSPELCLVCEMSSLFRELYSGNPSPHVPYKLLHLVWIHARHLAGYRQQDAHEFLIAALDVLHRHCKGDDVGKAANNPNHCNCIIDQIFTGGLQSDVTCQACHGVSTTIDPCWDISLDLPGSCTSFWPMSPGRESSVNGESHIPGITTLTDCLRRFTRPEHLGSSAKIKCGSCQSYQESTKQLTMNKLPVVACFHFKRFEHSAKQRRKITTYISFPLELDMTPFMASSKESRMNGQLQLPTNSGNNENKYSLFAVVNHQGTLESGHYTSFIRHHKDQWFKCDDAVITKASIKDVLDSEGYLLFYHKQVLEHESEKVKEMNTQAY
The experiment in a line: MALDI-TOF DUB activity assay with diubiquitin, single dose […].

Test [2] deals with T2, USP21 (Homo sapiens, UniProt Q9UK80).
T2 construct: recombinant (recUSP21)
T2 sequence (Q9UK80 1-565): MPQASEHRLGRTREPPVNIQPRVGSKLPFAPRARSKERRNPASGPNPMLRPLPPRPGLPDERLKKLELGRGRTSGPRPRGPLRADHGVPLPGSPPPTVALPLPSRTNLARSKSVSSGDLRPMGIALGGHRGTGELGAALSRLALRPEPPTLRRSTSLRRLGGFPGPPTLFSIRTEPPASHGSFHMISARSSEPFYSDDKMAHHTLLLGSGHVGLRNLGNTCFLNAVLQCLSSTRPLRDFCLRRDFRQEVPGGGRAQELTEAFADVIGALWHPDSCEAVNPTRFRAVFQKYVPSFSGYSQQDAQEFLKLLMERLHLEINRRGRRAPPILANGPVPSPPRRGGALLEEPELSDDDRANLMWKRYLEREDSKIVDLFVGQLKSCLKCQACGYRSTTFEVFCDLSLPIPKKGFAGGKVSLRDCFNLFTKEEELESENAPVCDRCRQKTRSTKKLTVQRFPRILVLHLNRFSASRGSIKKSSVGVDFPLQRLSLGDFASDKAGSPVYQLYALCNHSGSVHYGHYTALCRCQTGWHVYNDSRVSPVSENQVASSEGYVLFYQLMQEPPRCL
The experiment in a line: MALDI-TOF DUB activity assay with diubiquitin; […] inhibition at […].

Test [3] addresses T3, USP16 (Homo sapiens, UniProt Q9Y5T5).
T3 construct: recombinant
The experiment in a line: MALDI-TOF DUB activity assay with diubiquitin, single dose […].

Test [4] deals with T4, USP36 (Homo sapiens, UniProt Q9P275).
T4 construct: recombinant
T4 sequence (Q9P275 1-1123): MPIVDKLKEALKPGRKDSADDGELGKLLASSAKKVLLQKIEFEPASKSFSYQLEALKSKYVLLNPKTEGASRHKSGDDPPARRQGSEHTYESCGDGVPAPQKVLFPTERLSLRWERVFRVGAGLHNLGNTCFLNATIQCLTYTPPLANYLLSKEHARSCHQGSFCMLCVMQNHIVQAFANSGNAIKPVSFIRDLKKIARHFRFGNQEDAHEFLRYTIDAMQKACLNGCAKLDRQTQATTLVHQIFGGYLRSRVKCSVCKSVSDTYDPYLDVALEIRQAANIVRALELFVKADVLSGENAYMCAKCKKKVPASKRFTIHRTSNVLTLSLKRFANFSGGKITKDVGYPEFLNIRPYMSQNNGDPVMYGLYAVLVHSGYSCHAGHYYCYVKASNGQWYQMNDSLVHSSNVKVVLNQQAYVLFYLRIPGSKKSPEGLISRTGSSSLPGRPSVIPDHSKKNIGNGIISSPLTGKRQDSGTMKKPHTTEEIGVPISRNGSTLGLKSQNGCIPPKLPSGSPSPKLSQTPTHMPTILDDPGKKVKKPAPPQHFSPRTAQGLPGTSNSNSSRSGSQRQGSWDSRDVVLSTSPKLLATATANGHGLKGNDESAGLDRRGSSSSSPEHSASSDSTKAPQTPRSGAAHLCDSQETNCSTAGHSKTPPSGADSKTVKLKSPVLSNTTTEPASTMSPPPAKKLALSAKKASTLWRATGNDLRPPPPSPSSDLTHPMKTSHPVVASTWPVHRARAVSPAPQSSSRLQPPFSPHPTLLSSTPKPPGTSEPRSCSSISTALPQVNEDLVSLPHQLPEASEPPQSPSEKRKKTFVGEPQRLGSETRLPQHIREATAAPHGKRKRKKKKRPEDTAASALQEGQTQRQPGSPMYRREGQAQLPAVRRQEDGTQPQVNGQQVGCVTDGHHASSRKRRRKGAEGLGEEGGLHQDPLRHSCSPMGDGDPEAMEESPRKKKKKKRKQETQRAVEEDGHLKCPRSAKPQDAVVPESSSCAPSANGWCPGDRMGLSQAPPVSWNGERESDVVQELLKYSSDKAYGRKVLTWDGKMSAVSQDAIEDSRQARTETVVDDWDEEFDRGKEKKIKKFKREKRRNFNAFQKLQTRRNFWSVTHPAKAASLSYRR
The description is as above.

T3 sequence (Q9Y5T5 whole entry): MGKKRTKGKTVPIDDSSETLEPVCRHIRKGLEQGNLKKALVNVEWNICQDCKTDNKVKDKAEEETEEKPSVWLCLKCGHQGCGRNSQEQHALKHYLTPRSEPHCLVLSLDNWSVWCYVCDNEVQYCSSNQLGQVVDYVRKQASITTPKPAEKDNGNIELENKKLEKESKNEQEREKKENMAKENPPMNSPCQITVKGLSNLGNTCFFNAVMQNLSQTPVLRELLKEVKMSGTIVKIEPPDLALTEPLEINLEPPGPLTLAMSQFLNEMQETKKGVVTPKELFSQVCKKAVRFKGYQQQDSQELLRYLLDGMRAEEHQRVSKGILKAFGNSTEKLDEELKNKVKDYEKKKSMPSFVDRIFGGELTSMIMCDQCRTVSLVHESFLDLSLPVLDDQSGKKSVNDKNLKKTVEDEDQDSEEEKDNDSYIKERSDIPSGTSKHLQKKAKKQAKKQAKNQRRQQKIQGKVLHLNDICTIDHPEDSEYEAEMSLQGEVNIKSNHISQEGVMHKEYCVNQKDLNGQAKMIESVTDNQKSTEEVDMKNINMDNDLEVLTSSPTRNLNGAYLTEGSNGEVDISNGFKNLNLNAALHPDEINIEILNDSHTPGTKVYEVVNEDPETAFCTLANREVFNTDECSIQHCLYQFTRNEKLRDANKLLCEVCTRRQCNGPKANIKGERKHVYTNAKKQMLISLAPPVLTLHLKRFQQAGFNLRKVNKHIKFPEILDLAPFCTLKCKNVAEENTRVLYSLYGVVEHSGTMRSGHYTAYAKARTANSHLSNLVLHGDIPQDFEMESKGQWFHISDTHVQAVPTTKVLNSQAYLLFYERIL

Broadly, the inhibition is how much of the control response was suppressed. Broadly, the IC50 is the midpoint of a concentration-inhibition curve. In the case of `C=C(C)[C@@H]1CC[C@]2(C(=O)O)CC[C@]3(C)[C@H](CC[C@@H]4[C@@]5(C)CC[C@H](O)C(C)(C)[C@@H]5CC[C@]43C)[C@@H]12` [BA, betulinic acid], the inhibition at 10 µM in test [1] was 60%; in test [3], 40%; in test [4], 40%. Besides, the half-maximal inhibitory concentration (IC50) in test [2] came out at 6.1 µM.
